From PubChem BioAssay AID1963959 (Molecular Pharmacology Branch, DTP, NCI, 2024)

Tested on: T-47D spheroids with HUVEC/MSC, viability
Experiment: Anticancer human tumor T-47D cell line growth inhibition [PI3K];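 further: spheroids exposed to agents for seven days before reading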;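 on viability, T/C: percent of DMSO vehicle control luminescence so 100% = untreated growth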
Conditions: for IC50: curve of first compound; for viability, T/C: stronger effect = lower value
Summary of the method: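 High-throughput combination screen: PI3K inhibitors crossed with targeted small molecules on complex spheroids of tumor cells, HUVEC and MSCs at 37 degrees C, 5% CO2. Top concentration was at or near clinical Cmax (otherwise 10 microM), with half-log decrements.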

[1] = second compound 0.0316 µM, first compound 0.0316 µM
[2] = second compound 0.0316 µM, first compound 0.1 µM
[3] = second compound 0.0316 µM, first compound 0.316 µM
[4] = second compound 0.0316 µM, first compound 1 µM
[5] = second compound 0.0316 µM, first compound 3.16 µM
[6] = second compound 0.0316 µM, first compound 10 µM
[7] = second compound 0.1 µM, first compound 0.0316 µM
[8] = second compound 0.1 µM, first compound 0.1 µM
[9] = second compound 0.1 µM, first compound 0.316 µM
[10] = second compound 0.1 µM, first compound 1 µM
[11] = second compound 0.1 µM, first compound 3.16 µM
[12] = second compound 0.1 µM, first compound 10 µM
[13] = second compound 0.316 µM, first compound 0.0316 µM
[14] = second compound 0.316 µM, first compound 0.1 µM
[15] = second compound 0.316 µM, first compound 0.316 µM
[16] = second compound 0.316 µM, first compound 1 µM
[17] = second compound 0.316 µM, first compound 3.16 µM
[18] = second compound 0.316 µM, first compound 10 µM
[19] = second compound 1 µM, first compound 0.0316 µM
[20] = second compound 1 µM, first compound 0.1 µM
[21] = second compound 1 µM, first compound 0.316 µM
[22] = second compound 1 µM, first compound 1 µM
[23] = second compound 1 µM, first compound 3.16 µM
[24] = second compound 1 µM, first compound 10 µM
[25] = second compound 3.16 µM, first compound 0.0316 µM
[26] = second compound 3.16 µM, first compound 0.1 µM
[27] = second compound 3.16 µM, first compound 0.316 µM
[28] = second compound 3.16 µM, first compound 1 µM
[29] = second compound 3.16 µM, first compound 3.16 µM
[30] = second compound 3.16 µM, first compound 10 µM
[31] = second compound 10 µM, first compound 0.0316 µM
[32] = second compound 10 µM, first compound 0.1 µM
[33] = second compound 10 µM, first compound 0.316 µM
[34] = second compound 10 µM, first compound 1 µM
[35] = second compound 10 µM, first compound 3.16 µM
[36] = second compound 10 µM, first compound 10 µM

C[C@@H](NC(=O)c1ncnc(N)c1Cl)c1ncc(C(=O)Nc2cc(C(F)(F)F)c(Cl)cn2)s1 + Cc1nc(NC(=O)N2CCCC2C(N)=O)sc1-c1ccnc(C(C)(C)C(F)(F)F)c1
IC50 (second compound 0.0316 µM): > 10 µM | IC50 (second compound 0.1 µM): > 10 µM | IC50 (second compound 0.316 µM): > 10 µM | IC50 (second compound 1 µM): > 10 µM | IC50 (second compound 3.16 µM): > 10 µM | IC50 (second compound 10 µM): < 0.0316 µM | viability, T/C [1]: 108% | viability, T/C [2]: 99.6% | viability, T/C [3]: 88.5% | viability, T/C [4]: 87.2% | viability, T/C [5]: 88% | viability, T/C [6]: 102% | viability, T/C [7]: 109% | viability, T/C [8]: 80.1% | viability, T/C [9]: 105% | viability, T/C [10]: 80.6% | viability, T/C [11]: 93% | viability, T/C [12]: 99.5% | viability, T/C [13]: 94.3% | viability, T/C [14]: 99.5% | viability, T/C [15]: 109% | viability, T/C [16]: 86.8% | viability, T/C [17]: 97.7% | viability, T/C [18]: 97.3% | viability, T/C [19]: 88% | viability, T/C [20]: 86.7% | viability, T/C [21]: 90.4% | viability, T/C [22]: 91.4% | viability, T/C [23]: 95.6% | viability, T/C [24]: 100% | viability, T/C [25]: 78% | viability, T/C [26]: 69.3% | viability, T/C [27]: 68.1% | viability, T/C [28]: 64% | viability, T/C [29]: 74% | viability, T/C [30]: 73.2% | viability, T/C [31]: 36.7% | viability, T/C [32]: 37.1% | viability, T/C [33]: 41.8% | viability, T/C [34]: 36.7% | viability, T/C [35]: 40% | viability, T/C [36]: 46.6%

Cn1ncc(Cl)c1-c1cc(C(=O)NC(CN)Cc2cccc(F)c2)sc1Cl (stereo unspecified) + Cc1nc(NC(=O)N2CCCC2C(N)=O)sc1-c1ccnc(C(C)(C)C(F)(F)F)c1
IC50 (second compound 0.0316 µM): > 10 µM | IC50 (second compound 0.1 µM): > 10 µM | IC50 (second compound 0.316 µM): > 10 µM | IC50 (second compound 1 µM): > 10 µM | IC50 (second compound 3.16 µM): > 10 µM | IC50 (second compound 10 µM): < 0.0316 µM | viability, T/C [1]: 107% | viability, T/C [2]: 88.1% | viability, T/C [3]: 83.8% | viability, T/C [4]: 64.8% | viability, T/C [5]: 64.9% | viability, T/C [6]: 63.3% | viability, T/C [7]: 88.8% | viability, T/C [8]: 93.2% | viability, T/C [9]: 80.3% | viability, T/C [10]: 60% | viability, T/C [11]: 55.8% | viability, T/C [12]: 65.3% | viability, T/C [13]: 88.1% | viability, T/C [14]: 69.8% | viability, T/C [15]: 75% | viability, T/C [16]: 57.8% | viability, T/C [17]: 60.7% | viability, T/C [18]: 66.8% | viability, T/C [19]: 70% | viability, T/C [20]: 75.9% | viability, T/C [21]: 67.7% | viability, T/C [22]: 53.9% | viability, T/C [23]: 64.6% | viability, T/C [24]: 65.3% | viability, T/C [25]: 58.5% | viability, T/C [26]: 59.4% | viability, T/C [27]: 48.9% | viability, T/C [28]: 49.7% | viability, T/C [29]: 43.9% | viability, T/C [30]: 61.8% | viability, T/C [31]: 35.1% | viability, T/C [32]: 30% | viability, T/C [33]: 33.3% | viability, T/C [34]: 32.1% | viability, T/C [35]: 39.7% | viability, T/C [36]: 50.5%

Cn1ncnc1[C@H]1c2n[nH]c(=O)c3cc(F)cc(c23)N[C@@H]1c1ccc(F)cc1 + Cc1nc(NC(=O)N2CCCC2C(N)=O)sc1-c1ccnc(C(C)(C)C(F)(F)F)c1
IC50 (second compound 0.0316 µM): > 0.1 µM | IC50 (second compound 0.1 µM): > 0.1 µM | IC50 (second compound 0.316 µM): > 0.1 µM | IC50 (second compound 1 µM): > 0.1 µM | IC50 (second compound 3.16 µM): > 0.1 µM | IC50 (second compound 10 µM): < 0.000316 µM | viability, T/C (second compound 0.0316 µM, first compound 0.000316 µM): 105% | viability, T/C (second compound 0.0316 µM, first compound 0.001 µM): 103% | viability, T/C (second compound 0.0316 µM, first compound 0.00316 µM): 99% | viability, T/C (second compound 0.0316 µM, first compound 0.01 µM): 99.9% | viability, T/C [1]: 86.8% | viability, T/C [2]: 98.8% | viability, T/C (second compound 0.1 µM, first compound 0.000316 µM): 106% | viability, T/C (second compound 0.1 µM, first compound 0.001 µM): 96.3% | viability, T/C (second compound 0.1 µM, first compound 0.00316 µM): 95.5% | viability, T/C (second compound 0.1 µM, first compound 0.01 µM): 106% | viability, T/C [7]: 99.5% | viability, T/C [8]: 86.7% | viability, T/C (second compound 0.316 µM, first compound 0.000316 µM): 105% | viability, T/C (second compound 0.316 µM, first compound 0.001 µM): 97.5% | viability, T/C (second compound 0.316 µM, first compound 0.00316 µM): 105% | viability, T/C (second compound 0.316 µM, first compound 0.01 µM): 87% | viability, T/C [13]: 94.5% | viability, T/C [14]: 86.5% | viability, T/C (second compound 1 µM, first compound 0.000316 µM): 101% | viability, T/C (second compound 1 µM, first compound 0.001 µM): 89.3% | viability, T/C (second compound 1 µM, first compound 0.00316 µM): 85.1% | viability, T/C (second compound 1 µM, first compound 0.01 µM): 89.4% | viability, T/C [19]: 87.7% | viability, T/C [20]: 90.5% | viability, T/C (second compound 3.16 µM, first compound 0.000316 µM): 65.1% | viability, T/C (second compound 3.16 µM, first compound 0.001 µM): 70.8% | viability, T/C (second compound 3.16 µM, first compound 0.00316 µM): 63.4% | viability, T/C (second compound 3.16 µM, first compound 0.01 µM): 63.6% | viability, T/C [25]: 71.5% | viability, T/C [26]: 69.2% | viability, T/C (second compound 10 µM, first compound 0.000316 µM): 39% | viability, T/C (second compound 10 µM, first compound 0.001 µM): 34.8% | viability, T/C (second compound 10 µM, first compound 0.00316 µM): 36.8% | viability, T/C (second compound 10 µM, first compound 0.01 µM): 34.1% | viability, T/C [31]: 32.9% | viability, T/C [32]: 38.9%
